Data: EP3868394A1, “MONO- AND MULTI-TRIAZOLOMINIGASTRINS FOR TARGETING OF CCK2R-POSITIVE NEOPLASMS” (PAUL SCHERRER INSTITUT, priority 2020, dated 2021)
Like-named read-outs stand apart in the source and are kept apart here. Numbered stars: 1 amine (or outer) side, 2 acyl side, 3 side chain; on linkers, the order of the positions; unused ones are H or OH. Square brackets hold non-standard residues; d marks the D form. Peptide text beside a SMILES is read from it. * marks the point of attachment. DOTA = O=C(O)CN1CCN(CC(=O)O)CCN(CC(=O)*)CCN(CC(=O)O)CC1; X1 = O=C(Cn1cc([C@H](Cc2ccc(O)cc2)N[*:1])nn1)[*:2]; Nle = CCCC[C@H](N)C(=O)O

Columns and labels:
Blood plasma stability = type: in vitro ADME, human
Protocol: Stock solutions were prepared by dissolving the reference substances (Nle^15]-MG11 and PP-F11-N) or the triazolominigastrins (1 mg, 750 nmol) in ammonium acetate buffer (50 µL, 0.5 M, pH 5.5) and addition of water to a final peptide concentration of 250 µM (approx. 0.3 mg/mL). For in vitro experiments, DOTA-functionalized compounds (1 nmol, 4 µL of 250 µM stock solution) were added to a mixture of aq. HCl (22.5 µL, 0.05 M, pH 1.3), ammonium acetate buffer (10 µL, 0.5 M, pH 5.5) and aq. sodium ascorbate (5 µL, 0.5 M). 20-25 MBq of [^177Lu]LuCl3 (ca. 2.5 µL, in 0.04 M HCl, 20-25 MBq/nmol) were added and the mixtures were heated to 95 °C for 20 min in a heating block. After labeling, a 1 µL aliquot of the labeling mixture was added to aq. DTPA (200 µL, 25 µM) for quality control by γ-HPLC.
The ^177Lu-labeled compounds were diluted with 0.9% NaCl to a concentration of 3.75 µM and incubated (375 pmol, 100 µL, 7.5-12 MBq) in human blood plasma (1.5 mL) at 37 °C. At different time points (0.5, 1, 2, 4, 6 and 24 h) aliquots (75 µL) were taken and the proteins were precipitated in CH3CN (100 µL) and centrifuged (2 min, 14680 rpm, rt). The supernatant (75 µL) was diluted with water (75 µL) and analyzed by γ-HPLC. One phase decay nonlinear regression (A = A0 ^∗ e^-kt) was used to calculate the half-lifes (t1/2) of the peptide conjugates with GraphPad Prism (n=2-3).

CCK2R-positive tumors = settings: cited from earlier work
A431-CCK2R cells = assay: Cell internalization experiments with 177Lu-labeled conjugates; type: cell-based, Human
Protocol: Stock solutions were prepared by dissolving the reference substances (Nle^15]-MG11 and PP-[…]) or the triazolominigastrins (1 mg, 750 nmol) in ammonium acetate buffer (50 μL, 0.5 M, pH 5.5) and addition of water to a final peptide concentration of 250 μM (approx. 0.3 mg/mL). For in vitro experiments, DOTA-functionalized compounds (1 nmol, 4 μL of 250 μM stock solution) were added to a mixture of aq. HCl (22.5 μL, 0.05 M, pH 1.3), ammonium acetate buffer (10 μL, 0.5 M, pH 5.5) and aq. sodium ascorbate (5 μL, 0.5 M). 20-25 MBq of [^177Lu]LuCl3 (ca. 2.5 μL, in 0.04 M HCl, 20-25 MBq/nmol) were added and the mixtures were heated to 95 °C for 20 min in a heating block. After labeling, a 1 μL aliquot of the labeling mixture was added to aq. DTPA (200 μL, 25 μM) for quality control by γ-HPLC. Human epidermoid carcinoma cells A431 stably transfected to express the CCK2R (A431-CCK2R cells)[Aloj L., Journal of Nuclear Medicine, 2004, 45, 485-494] were grown in monolayers in NunclonTM Delta treated cell culture flasks in humidified air at 5% CO2 and 37 °C. The cells were maintained in the culture medium DMEM (high glucose (4.5 g/L)) supplemented with 20 mM L-Gln and 10% FCS. The culture was passaged regularly at 80 to 90% confluency using a 0.25% trypsin 0.38‰ EDTA solution. Assays were conducted in the assay medium DMEM (high glucose) containing 0.1% BSA. On the day prior to the experiment A431-CCK2R cells were placed in six-well plates (0.85·10^6 cells/well) in cell culture medium and incubated overnight for attachment. On the day of the experiment, the medium was removed and the cells were washed twice with 1 mL PBS. The plates were put on ice for preparation. 0.9 mL of assay medium was dispensed to all wells except the ones for nonspecific binding. 0.2 pmol of ^177Lu-labeled conjugates (100 μL, 2 nM in assay medium, ca. 4.2 kBq) were dispensed to all wells. For the determination of nonspecific binding, a 5000-fold excess of […] (1 nmol, 100 μL, 10 μM in assay medium) was added to 0.8 mL of assay medium containing the ^177Lu-labeled conjugates. The plates were incubated at 37 °C in 5% CO2 to allow binding and internalization. The process was stopped after 30, 60, 120, and 240 min by collection of the supernatant. The cells were washed twice with PBS (each 0.6 mL). The combined supernatants represent the free, unbound fraction of radioactivity. Membrane-bound activity was determined by incubating the cells with cold saline glycine buffer (0.6 mL, 0.05 M, pH 2.8) twice for 5 min at rt. The internalized fraction was isolated by two cycles of cell lysis with NaOH (each 0.6 mL, 1 M, 10 min, rt). The radioactivity of the fractions was measured by a COBRA-II gamma counter and is represented as percentage of total applied radioactivity dosage (n=3-5 in triplicates).

[1] = compared with [Nle^15]MG11, Figure 1
[2] = compared with PP-F11N, Figure 1

CCCC[C@H](NC(=O)[C@H](Cc1c[nH]c2ccccc12)NC(=O)CNC(=O)[C@H](Cc1ccc(O)cc1)NC(=O)[C@H](C)NC(=O)[C@@H](CCC(=O)O)NC(=O)[C@@H](CCC(=O)O)NC(=O)[C@@H](CCC(=O)O)NC(=O)[C@@H](CCC(=O)O)NC(=O)[C@@H](CCC(=O)O)NC(=O)[C@@H](CCC(=O)O)NC(=O)CN1CCN(CC(=O)O)CCN(CC(=O)O)CCN(CC(=O)O)CC1)C(=O)N[C@@H](CC(=O)O)C(=O)N[C@@H](Cc1ccccc1)C(N)=O [PP-F11N, reference compound]
stability in plasma over 24 hours (Blood plasma stability; 177Lu-labeled, human blood plasma, 37 °C, over 24 hours, Figure 3): high stability
tumor-to-kidney ratio (CCK2R-positive tumors; according to WO 2015/067473 A1): excellent

CCCC[C@H](NC(=O)[C@H](Cc1c[nH]c2ccccc12)NC(=O)Cn1cc([C@H](Cc2ccc(O)cc2)n2cc([C@H](C)n3cc([C@@H](CCC(=O)O)NC(=O)CN4CCN(CC(=O)O)CCN(CC(=O)O)CCN(CC(=O)O)CC4)nn3)nn2)nn1)C(=O)N[C@@H](CC(=O)O)C(=O)N[C@@H](Cc1ccccc1)C(N)=O [TZMG 876, DOTA-DGlu-Ψ[Tz]-Ala-Ψ[Tz]-Tyr-Ψ[Tz]-Gly-Trp-Nle-Asp-Phe-NH2]
stability in plasma (Blood plasma stability): significantly higher stability

CCCC[C@H](NC(=O)[C@H](Cc1c[nH]c2ccccc12)NC(=O)Cn1cc([C@H](Cc2ccc(O)cc2)NC(=O)[C@H](C)NC(=O)[C@@H](CCC(=O)O)NC(=O)[C@@H](CCC(=O)O)NC(=O)[C@@H](CCC(=O)O)NC(=O)[C@@H](CCC(=O)O)NC(=O)[C@@H](CCC(=O)O)NC(=O)[C@@H](CCC(=O)O)NC(=O)CN2CCN(CC(=O)O)CCN(CC(=O)O)CCN(CC(=O)O)CC2)nn1)C(=O)N[C@@H](CC(=O)O)C(=O)N[C@@H](Cc1ccccc1)C(N)=O [NMG 6, DOTA-(DGlu)5-DGlu-Ala-Tyr-Ψ[Tz]-Gly-Trp-Nle-Asp-Phe-NH2]
stability in plasma over 24 hours (Blood plasma stability): high stability

DOTA-DGlu-Ψ[Tz]-Ala-Tyr-Ψ[Tz]-Gly-Trp-Nle-Asp-Phe-NH2 [TZMG 86]
cell internalization after 4 h (A431-CCK2R cells; [1]): higher
cell internalization kinetics (A431-CCK2R cells; [1]): faster
stability in plasma (Blood plasma stability): significantly higher stability

DOTA-(DGlu)5-DGlu-Ψ[Tz]-Ala-Tyr-Ψ[Tz]-Gly-Trp-Nle-Asp-Phe-NH2 [NMG 86]
cell internalization after 4 h (A431-CCK2R cells; [2]): higher
cell internalization kinetics (A431-CCK2R cells; [2]): faster
stability in plasma over 24 hours (Blood plasma stability): high stability

CCCC[C@H](NC(=O)[C@H](Cc1c[nH]c2ccccc12)NC(=O)Cn1cc([C@H](Cc2ccc(O)cc2)NC(=O)[C@H](C)NC(=O)[C@@H](CCC(=O)O)NC(=O)CN2CCN(CC(=O)O)CCN(CC(=O)O)CCN(CC(=O)O)CC2)nn1)C(=O)N[C@@H](CC(=O)O)C(=O)N[C@@H](Cc1ccccc1)C(N)=O [TZMG 6, DOTA-DGlu-Ala-Tyr-Ψ[Tz]-Gly-Trp-Nle-Asp-Phe-NH2] ({DOTA}-[dE]A[X1]W[Nle]DF-NH2)
stability in plasma (Blood plasma stability): reduced stability

DOTA-DGlu-DGlu-DGlu-DGlu-DGlu-DGlu-Ala-Tyr-Gly-Trp-Met-Asp-Phe-NH2 [PP-F11]
accumulation in the tumor (CCK2R-positive tumors; [^177Lu]Lu-PP-F11): high favorable accumulation
accumulation in the kidneys (CCK2R-positive tumors; in vivo): low accumulation
